Assay results as given in patent US11384079B2, “6-5 fused rings as C5a inhibitors” (CHEMOCENTRYX, INC., priority 2017, dated 2022).

Target: T1, C5aR (Homo sapiens, UniProt P21730)
T1 construct: U937 cells are a monocytic cell line which express C5aR; host or cells: U937 cells (cAMP treated) or isolated neutrophils
T1 sequence (P21730 1-350): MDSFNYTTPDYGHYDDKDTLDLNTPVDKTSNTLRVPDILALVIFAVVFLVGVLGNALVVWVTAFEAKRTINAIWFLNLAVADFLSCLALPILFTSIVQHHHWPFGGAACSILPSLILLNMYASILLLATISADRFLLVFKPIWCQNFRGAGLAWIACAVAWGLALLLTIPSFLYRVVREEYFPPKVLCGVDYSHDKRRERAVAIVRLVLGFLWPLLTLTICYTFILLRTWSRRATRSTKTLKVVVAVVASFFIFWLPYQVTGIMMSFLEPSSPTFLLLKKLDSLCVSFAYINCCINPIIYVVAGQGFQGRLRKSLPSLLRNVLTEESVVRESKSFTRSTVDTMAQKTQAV
Test: chemotaxis assay (C5aR mediated migration)
Type: cell-based
Conditions: migration of U937 or neutrophil cells toward C5a (0.03 nM), 1.5 hours at 37° C., read-out: Mig IC50
How it was run: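 Migration of cAMP-treated U937 cells (0.5 mM overnight), or of human or murine neutrophils, toward C5a was measured through 5 μm polycarbonate filters in HBSS with 1% FBS. SDF-1α served as a specificity control. After 1.5 h at 37 °C, lower-chamber cells were counted directly or by CyQuant.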

Structure (SMILES) | IC50 [nM]
Cc1cnc(N2CCc3nn(-c4c(C)cccc4C)c(-c4ccc(Cl)c5[nH]ccc45)c3C2)nc1 [Example 1.154] | 5 to 50
Cc1cccc(C)c1-n1nc2c(c1-c1ccc(Cl)c3[nH]ccc13)CN(c1ncc(Cl)cn1)CC2 [Example 1.155] | 5 to 50
CCc1cccc(CC)c1-n1nc2c(c1-c1ccc(Cl)c3[nH]ccc13)CN(c1ncc(C)cn1)CC2 [Example 1.156] | < 5
CCc1cccc(CC)c1-n1nc2c(c1-c1ccc(Cl)c3[nH]ccc13)CN(c1ncccn1)CC2 [Example 1.157] | < 5
CCc1cccc(CC)c1-n1nc2c(c1-c1ccc(Cl)c3[nH]ccc13)CN(c1ncc(F)cn1)CC2 [Example 1.158] | < 5
CCc1cccc(CC)c1-n1nc2c(c1-c1ccc(Cl)c3[nH]ccc13)CN(c1ncc(F)cc1Cl)CC2 [Example 1.159] | < 5
CCc1cccc(CC)c1-n1nc2c(c1-c1ccc(Cl)c3[nH]ccc13)CN(c1ncc(Cl)cn1)CC2 [Example 1.160] | < 5
CCc1cccc(CC)c1-n1nc2c(c1-c1ccc(Cl)c3[nH]ccc13)CN(c1ncc(C(F)(F)F)cn1)CC2 [Example 1.161] | < 5
CCc1cccc(CC)c1-n1nc2c(c1-c1ccc(F)c3[nH]cc(Cl)c13)CN(c1ncc(C(F)(F)F)cc1F)CC2 [Example 1.162] | 5 to 50
CCc1cccc(CC)c1-n1nc2c(c1-c1ccc(Cl)c3[nH]ccc13)CN(c1ccc(C(F)(F)F)cn1)CC2 [Example 1.163] | < 5
CCc1cccc(CC)c1-n1nc2c(c1-c1ccc(Cl)c3[nH]ccc13)CN(c1ncc(C(C)C)cn1)CC2 [Example 1.164] | < 5
CCc1cccc(CC)c1-n1nc2c(c1-c1ccc(C(C)(C)O)c3[nH]ccc13)CN(c1ncc(C(F)(F)F)cc1F)CC2 [Example 1.165] | 50 to 500
Cc1cccc(C)c1-n1nc2c(c1-c1ccc(F)c3[nH]cc(Cl)c13)CN(c1ncc(C(F)(F)F)cc1F)CC2 [Example 1.166] | 50 to 500
CCc1cccc(CC)c1-n1nc2c(c1-c1ccc(Cl)c3[nH]ccc13)CN(c1ncc(C(C)C)cn1)CC2 [Example 1.167] | < 5
CCc1cccc(CC)c1-n1nc2c(c1-c1ccc(C(N)=O)c3[nH]ccc13)CN(c1ncc(C(F)(F)F)cc1F)CC2 [Example 1.168] | 50 to 500
Cc1cccc(C)c1-n1nc2c(c1-c1ccc(Cl)c3[nH]ccc13)CN(c1ncc(C(F)(F)F)cc1F)CC2 [Example 1.169] | 5 to 50

The next lines start with the values.

IC50 [nM] | Structure (SMILES)
< 5 | CCc1cccc(CC)c1-n1nc2c(c1-c1ccc(C)c3[nH]cc(Cl)c13)CN(c1ncc(C(F)(F)F)cc1F)CC2 [Example 1.170]
< 5 | CCc1cccc(CC)c1-n1nc2c(c1-c1ccc(CO)c3[nH]ccc13)CN(c1ccc(C(F)(F)F)cn1)CC2 [Example 1.171]
< 5 | CCc1cccc(CC)c1-n1nc2c(c1-c1ccc(C(=O)OC)c3[nH]ccc13)CN(c1ncc(C(F)(F)F)cc1F)CC2 [Example 1.172]
5 to 50 | CCc1cccc(CC)c1-n1nc2c(c1-c1ccc(F)c3[nH]ccc13)CN(c1cnccn1)CC2 [Example 1.173]
< 5 | CCc1cccc(CC)c1-n1nc2c(c1-c1ccc(CO)c3[nH]ccc13)CN(c1ncc(C(F)(F)F)cc1F)CC2 [Example 1.174]
< 5 | CCc1cccc(CC)c1-n1nc2c(c1-c1ccc(F)c3[nH]ccc13)CN(c1ncc(C3CC3)cc1F)CC2 [Example 1.175]
< 5 | CCc1cccc(CC)c1-n1nc2c(c1-c1ccc(F)c3[nH]ccc13)CN(c1ncc(C3CC3)cc1Cl)CC2 [Example 1.176]
< 5 | CCc1cccc(CC)c1-n1nc2c(c1-c1ccc(F)c3[nH]ccc13)CN(c1ncc(C)cn1)CC2 [Example 1.177]
50 to 500 | Cc1cccc(C)c1-n1nc2c(c1-c1ccc(F)c3[nH]ccc13)CN(c1ncc(C(F)(F)F)cc1F)CC2 [Example 1.178]
< 5 | CCc1cccc(CC)c1-n1nc2c(c1-c1ccc(F)c3[nH]ccc13)CN(c1ncc(C(F)(F)F)cn1)CC2 [Example 1.179]
< 5 | CCc1cccc(CC)c1-n1nc2c(c1-c1ccc(F)c3[nH]ccc13)CN(c1ncc(C(C)C)cc1F)CC2 [Example 1.180]
